# Target: CBP (Homo sapiens (Human), UniProt Q92793)
# Experiment: In vitro CBP inhibition (AlphaScreen, biotinylated H4-tetraacetyl peptide)
# Format: binding
# Conditions: AlphaScreen, Table 29; read-out: CBP IC50
# Description: The CBP-inhibitory activity of the compounds described herein was determined by calculating the IC50. More specifically, CBP inhibitor activity was assayed as follows: CBP was cloned and expressed in E. coli as His-tag protein and purified by Nickel affinity and gel-filtration chromatography. […] CBP binding and inhibition is assessed by monitoring the interaction of biotinylated H4-tetraacetyl peptide (AnaSpec, H4K5/8/12/16(Ac), biotin-labeled) with the target using the AlphaScreen technology (Perkin Elmer). In a 384-well ProxiPlate CBP (50 nM final) was combined with peptide (20 nM final) in 50 mM HEPES (pH 7.3), 10 mM NaCl, 0.25 mM TCEP, 0.1% (w/v) BSA, and 0.005% (w/v) Brij-35 either in the presence of DMSO (final 0.4% DMSO) or compound dilution series in DMSO. After 20 min incubation at room temp, Alpha-streptavidin donor beads and Nickel Chelate acceptor beads were added to a final concentration of 5 μg/mL.
# The ability of the compounds disclosed herein to inhibit CBP activity was quantified and the respective IC50 value determined.
# Sequence of CBP (Q92793 1081-1197): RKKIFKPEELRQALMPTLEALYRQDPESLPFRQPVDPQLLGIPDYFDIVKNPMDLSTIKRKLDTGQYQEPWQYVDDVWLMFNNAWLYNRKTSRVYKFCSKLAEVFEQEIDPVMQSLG
row,IC50 [nM],SMILES
1,< 500,"COc1ccc(C#N)cc1-n1cc(-c2cn(C)c(=O)cc2-c2ccc(Cl)cc2)cn1 [Example 307, 3-{4-[4-(4-Chloro-phenyl)-1-methyl-6-oxo-1,6-dihydro-pyridin-3-yl]-pyrazol-1-yl}-4-methoxy-benzonitrile]"
2,< 500,"Cn1cc(-c2cnn(-c3cccc(C4CC4)c3C#N)c2)c(-c2ccn(C3CC3)c(=O)c2)cc1=O [Example 388, 2-cyclopropyl-6-(4-(1′-cyclopropyl-1-methyl-2′,6-dioxo-1,1′,2′,6-tetrahydro-[4,4′-bipyridin]-3-yl)-1H-pyrazol-1-yl)benzonitrile]"
3,< 500,"Cc1cc(-c2cc(=O)n(C)cc2-c2cnn(-c3ccccc3C#N)c2)c[nH]c1=O [Example 210, 2-[4-(5,1′-Dimethyl-6,6′-dioxo-1,6,1′,6′-tetrahydro-[3,4′]bipyridinyl-3′-yl)-pyrazol-1-yl]-benzonitrile]"
4,< 500,Cn1cc(-c2cnn(-c3cccc(F)c3C#N)c2)c(-c2ccc(OC3CCCC3)nc2)cc1=O [Example 361]
5,< 500,"Cn1cc(-c2cnn(Cc3ccccc3)c2)c(-c2ccc(C(=O)O)cc2)cc1=O [Example 155, 4-(5-(1-benzyl-1H-pyrazol-4-yl)-1-methyl-2-oxo-1,2-dihydropyridin-4-yl)benzoic acid]"
6,< 500,"CCOc1cc(=O)n(C)cc1-c1cnn(Cc2ccc(-c3cnn(C)c3)cc2)c1 [Example 102, 4-ethoxy-1-methyl-5-{1-[4-(1-methyl-1H-pyrazol-4-yl)-benzyl]-1H-pyrazol-4-yl}-1H-pyridin-2-one]"
7,< 500,"COc1ccc(-c2cc(=O)n(C)cc2-c2cnn(-c3cccc(C4CC4)c3C#N)c2)cn1 [Example 383, 2-cyclopropyl-6-(4-(6-methoxy-1′-methyl-6′-oxo-1′,6′-dihydro-[3,4′-bipyridin]-3′-yl)-1H-pyrazol-1-yl)benzonitrile]"
8,< 500,"COC(=O)Cn1cc(-c2cn(C)c(=O)cc2-c2ccccc2)cn1 [Example 140, methyl 2-(4-(1-methyl-6-oxo-4-phenyl-1,6-dihydropyridin-3-yl)-1H-pyrazol-1-yl)acetate]"
9,< 500,"CC(C)Oc1cc(=O)n(C)cc1-c1cnn(-c2ccccc2C(=O)O)c1 [Example 203, 2-[4-(4-Isopropoxy-1-methyl-6-oxo-1,6-dihydro-pyridin-3-yl)-pyrazol-1-yl]-benzoic Acid]"
10,< 500,"CCOc1cc(=O)n(C)cc1-c1cnn(Cc2cccc(C(=O)OC)c2)c1 [Example 71, methyl 3-((4-(4-ethoxy-1-methyl-6-oxo-1,6-dihydropyridin-3-yl)-1H-pyrazol-1-yl)methyl)benzoate]"
11,< 500,"CCc1ccc(-c2cc(=O)n(C)cc2-c2cnn(-c3ccccc3C#N)c2)cn1 [Example 373, 2-(4-(6-ethyl-1-methyl-6′-oxo-1′,6′-dihydro-[3,4′-bipyridin]-3′-yl)-1H-pyrazol-1-yl)benzonitrile]"
12,< 500,"Cc1cc(-c2cnn(-c3cc(Oc4ccccc4)ccc3C#N)c2)cn(C)c1=O [Example 258, 2-[4-(1,5-Dimethyl-6-oxo-1,6-dihydro-pyridin-3-yl)-pyrazol-1-yl]-4-phenoxy-benzonitrile]"
13,< 500,"Cn1cc(-c2cnn(Cc3ccccc3)c2)c(-c2cnn(CC(N)=O)c2)cc1=O [Example 158, 2-(4-(5-(1-benzyl-1H-pyrazol-4-yl)-1-methyl-2-oxo-1,2-dihydro-pyridin-4-yl)-1H-pyrazol-1-yl)acetamide]"
14,< 500,"CC(C)Oc1ccc(-c2cc(=O)n(C)cc2-c2cnn(-c3ccccc3C#N)c2)cn1 [Example 235, 2-[4-(6-Isopropoxy-1′-methyl-6′-oxo-1′,6′-dihydro-[3,4′]bipyridinyl-3′-yl)-pyrazol-1-yl]-benzonitrile]"
15,< 500,"COC(=O)c1ccn(-c2cc(=O)n(C)cc2-c2cnn(Cc3ccccc3)c2)c1 [Example 77, methyl 1-(5-(1-benzyl-1H-pyrazol-4-yl)-1-methyl-2-oxo-1,2-dihydro-pyridin-4-yl)-1H-pyrrole-3-carboxylate]"
16,< 500,"Cn1cc(-c2cnn(Cc3ccccc3)c2)c(-c2ccc(C#N)cc2)cc1=O [Example 150, 4-(5-(1-benzyl-1H-pyrazol-4-yl)-1-methyl-2-oxo-1,2-dihydro-pyridin-4-yl)benzonitrile]"
17,< 500,"CCNc1ccc(-c2cc(=O)n(C)cc2-c2cnn(-c3cccc(Cl)c3C#N)c2)cn1 [Example 342, 2-chloro-6-(4-(6-(ethylamino)-1′-methyl-6′-oxo-1′,6′-dihydro-[3,4′-bipyridin]-3′-yl)-1H-pyrazol-1-yl)benzonitrile]"
18,< 500,"CC(C)Oc1ccc(-c2cc(=O)n(C)cc2-c2cnn(-c3cccc(F)c3C#N)c2)cn1 [Example 358, 2-fluoro-6-[4-[4-(6-isopropoxy-3-pyridyl)-1-methyl-6-oxo-3-pyridyl]pyrazol-1-yl]benzonitrile]"
19,< 500,"CCSc1cc(=O)n(C)cc1-c1cnn(Cc2ccccc2)c1 [Example 168, 5-(1-Benzyl-1H-pyrazol-4-yl)-4-ethylsulfanyl-1-methyl-1H-pyridin-2-one]"
20,< 500,"COc1ccccc1C(C)n1cc(-c2ccc(=O)n(C)c2)cn1 (stereo not shown) [Example 27, 5-(1-(1-(2-methoxy-phenyl)ethyl)-1H-pyrazol-4-yl)-1-methyl-pyridin-2(1H) one]"
21,< 500,"CNc1ccc(-c2cc(=O)n(C)cc2-c2cnn(-c3cccc(Cl)c3C#N)c2)cn1 [Example 341, 2-chloro-6-(4-(1′-methyl-6-(methylamino)-6′-oxo-1′,6′-dihydro-[3,4′-bipyridin]-3′-yl)-1H-pyrazol-1-yl)benzonitrile]"
22,< 500,"COCCNc1ncc(-c2cc(=O)n(C)cc2-c2cnn(-c3ccccc3C#N)c2)cn1 [Example 324, 2-(4-(4-(2-((2-methoxyethyl)amino)pyrimidin-5-yl)-1-methyl-6-oxo-1,6-dihydropyridin-3-yl)-1H-pyrazol-1-yl)benzonitrile]"
23,< 500,"CCOc1cc(=O)n(C)cc1-c1cnn(-c2ccccc2F)c1 [Example 252, 4-ethoxy-5-(1-(2-fluorophenyl)-1H-pyrazol-4-yl)-1-methylpyridin-2(1H)-one]"
24,< 500,"COc1cc(-c2cc(=O)n(C)cc2-c2cnn(-c3cccc(F)c3C#N)c2)ccc1C [Example 278, 2-fluoro-6-(4-(4-(3-methoxy-4-methylphenyl)-1-methyl-6-oxo-1,6-dihydro-pyridin-3-yl)-1H-pyrazol-1-yl)benzonitrile]"
25,< 500,"Cn1cc(-c2cnn(-c3cccc(Cl)c3C#N)c2)c(-c2ccc(OCC3CC3)nc2)cc1=O [Example 357, 2-chloro-6-[4-[4-[6-(cyclopropylmethoxy)-3-pyridyl]-1-methyl-6-oxo-3-pyridyl]pyrazol-1-yl]benzonitrile]"

row,SMILES,IC50 [nM]
1,"CCOc1cc(=O)n(C)cc1-c1cnn(C(C)c2ccc(-c3cnn(C)c3)cc2)c1 (stereo not shown) [Example 100, 4-ethoxy-1-methyl-5-(1-{1-[4-(1-methyl-1H-pyrazol-4-yl)-phenyl]-ethyl}-1H-pyrazol-4-yl)-1H-pyridin-2-one]",< 500
2,"Cn1nccc1-c1cc(=O)n(C)cc1-c1cnn(Cc2ccccc2)c1 [Example 110, 5-(1-benzyl-1H-pyrazol-4-yl)-1-methyl-4-(1-methyl-1H-pyrazol-5-yl)pyridin-2(1H)-one]",500 to 5000
3,"Cn1cc(-c2cnn(Cc3ccccc3)c2)c(-n2cccn2)cc1=O [Example 66, 5-(1-benzyl-1H-pyrazol-4-yl)-1-methyl-4-(1H-pyrazol-1-yl) pyridin-2(1H)-one]",500 to 5000
